From article PMC12207250, “Investigations of amination reactions on an antimalarial 1,2,4-triazolo[4,3-a]pyrazine scaffold” (Beilstein Journal of Organic Chemistry, 2025) come the findings set out here.

Read-outs that look alike come from different tables or passages of the source.

The test system of one data set is HEK293 cells. Description: In vitro cytotoxicity assay (resazurin). Conditions: for cytotoxicity against HEK293 cells at the top concentration tested (in words): 80 µM. It counts as cell-based, human. The method, then: (§1) Human embryonic kidney (HEK293) cells were maintained in DMEM (Life Technologies, Camarillo, CA, USA) containing 10% FBS (Hyclone™ ThermoFisher, Melbourne, Australia). Cytotoxicity testing was undertaken as previously described. In brief, 5 μL of test compound was added to the well of black/clear tissue culture-treated, 384-well plates containing 2000 adherent HEK293 cells/well and incubated 72 h at 37 °C in 5% CO2. […], 5 µL of 600 µM resazurin, diluted in growth media, was added. Plates were further incubated for 6 h and measured for fluorescence at 530 nm excitation and 595 nm emission. The % inhibition was calculated using 0.4% DMSO (no inhibition) and 50 μM puromycin (100% inhibition) data. Puromycin was included as a reference compound to assess assay validity. IC50 values were obtained by plotting % inhibition against log dose using GraphPad Prism v.6 (San Diego, CA, USA) nonlinear regression with a variable slope plot.
In vitro cytotoxicity assay
Human embryonic kidney (HEK293) cells were maintained in DMEM (Life
Technologies, Camarillo, CA, USA) containing 10% FBS (Hyclone™ ThermoFisher, Melbourne, Australia). Cytotoxicity testing was undertaken as previously described.
as §1, with “In brief,” for “Human embryonic kidney (HEK293) cells were maintained in DMEM (Life Technologies, Camarillo, CA, USA) containing 10% FBS (Hyclone™ ThermoFisher, Melbourne, Australia). Cytotoxicity testing was undertaken as previously described. In brief,”, “and incubated for 72 h” for “and incubated 72 h”, “slope plot. […]” for “slope plot.”
(The colour change of resazurin is a common sign of viable cells or microbes.)

Data set [1] has as its system P. falciparum 3D7 (chloroquine-sensitive strain). Description: In vitro antiplasmodial image-based assay. It counts as cell-based, Plasmodium falciparum. The settings on record: for IC50 / inhibition at 80 µM: Plasmodium falciparum; for IC50: read-out: Pf 3D7 IC50 ± SD; for inhibition at 80 µM: 3D7, accurate IC50 not determinable, read-out: growth inhibition against Pf 3D7 at the assay top dose; for Selectivity index (fold difference) IC50(HEK293)/IC50(Pf 3D7): HEK293 versus Pf 3D7. The procedure:
Plasmodium falciparum 3D7 were cultured in RPMI1640 (Life Technologies, Camarillo, CA, USA) supplemented with 2.5 mg/mL Albumax II, 5% AB human serum, 25 mM HEPES, and 0.37 mM hypoxanthine. Human red blood cells (RBC) (O+) were supplied by Australian Red Cross LifeBlood in accordance with agreement 23-05QLD-23. Use of human RBC for antiplasmodial experimentation was in accordance with Griffith University Human Ethics Exemption Approval #03/08/11019. Ring-stage parasites were treated with compounds following two rounds of sorbitol synchronisation, as previously described. Puromycin, chloroquine, pyrimethamine, and dihydroartemisinin were used as reference compounds. Following incubation of assay plates for 72 h at 37 °C, and 5% CO2 and 5% O2, parasites were stained with 2-(4-amidinophenyl)-1H-indole-6-carboxamidine (DAPI) and imaged using an Opera PhenixPlus™ High Content Screening System (PerkinElmer, Waltham, MA, USA). Images were analysed using the Harmony software (PerkinElmer, Waltham, MA, USA). […]
In vitro antiplasmodial image-based assay
Plasmodium falciparum 3D7 were cultured in RPMI1640 (Life Technologies, Camarillo, CA, USA) supplemented with 2.5 mg/mL Albumax II, 5% AB human serum, 25 mM HEPES, and 0.37mM hypoxanthine. Human red blood cells (RBC) (O+) were supplied by Australian Red Cross LifeBlood in accordance with agreement 23-05QLD-23. Use of human RBC for anti-plasmodial experimentation was in accordance with Griffith University Human Ethics Exemption Approval #03/08/11019. Ring stage parasites were treated with compounds following two rounds of sorbitol synchronisation, as previously described. Puromycin, chloroquine, pyrimethamine, and dihydroartemisinin were used as reference compounds. Following incubation of assay plates for 72 h at 37 °C, and 5% CO2 and 5% O2, parasites were stained with 2-(4-amidinophenyl)-1H-indole-6-carboxamidine (DAPI) and imaged using an Opera PhenixPlusTM High Content Screening System (PerkinElmer, Waltham, MA, USA).
Images were analysed using Harmony software (PerkinElmer, Waltham, MA, USA).

[2] abbreviates: Homo sapiens, HEK293, at top concentration 80 µM, 72 h, mean of duplicate, n = 1, read-out: HEK293 % inhibition ± SD.
Where [3] appears, read: P. falciparum 3D7, ring-stage, 72 h, mean of duplicate, n = 1.
Setting [4] is: reference compounds, P. falciparum 3D7, 72 h.

In the case of `Clc1ccc(-c2nnc3c(NCCN4CCNCC4)nccn23)cc1` [Compound 14], the inhibition at 80 µM with HEK293 cells (setting [2]) was found to be 84 ± 4%. The concentration for half-maximal inhibition (IC50) in data set [1] (setting [3]) is 9.9 ± 1.27 µM.

Turning to `Clc1ccc(-c2nnc3c(NC4CCCCC4)nccn23)cc1` [Compound 8], the inhibition at 80 µM in data set [1] was less than 100%. With `CCc1nc(N)nc(N)c1-c1ccc(Cl)cc1` [PMA, pyrimethamine, reference compound], the IC50 in data set [1] (setting [4]) was 0.0112 ± 0.00212 µM. For the compound `CN(C)CCNc1nccn2c(-c3ccc(Cl)cc3)nnc12` [Compound 10, N^1-(3-(4-Chlorophenyl)-[1,2,4]triazolo[4,3-a]pyrazin-8-yl)-N^2,N^2-dimethylethane-1,2-diamine], in data set [1], the “Selectivity index (fold difference) IC50(HEK293)/IC50(Pf 3D7)” value is reported as greater than 3. Also, the IC50 in data set [1] (setting [3]) turned out to be 23.3 ± 1.7 µM. For `COc1ccc(C[C@H](N)C(=O)N[C@H]2[C@@H](O)[C@H](n3cnc4c(N(C)C)ncnc43)O[C@@H]2CO)cc1` [PMY, puromycin, reference compound], the concentration for half-maximal inhibition (IC50) was 0.43 ± 0.0283 µM in the data set with HEK293 cells (Homo sapiens, HEK293, reference compounds, 72 h, read-out: HEK293 IC50 ± SD) and 0.0338 ± 0.00566 µM in data set [1] (setting [4]). Further, in data set [1], the “Selectivity index (fold difference) IC50(HEK293)/IC50(Pf 3D7)” value amounted to 13.

Take `Clc1ccc(-c2nnc3c(NCCc4ccccc4)nccn23)cc1` [Compound 2, 3-(4-Chlorophenyl)-N-phenethyl-[1,2,4]triazolo[4,3-a]pyrazin-8-amine]: the “cytotoxicity against HEK293 cells at the top concentration tested (in words)” value (from here on “cytotoxicity against HEK293 cells”) with HEK293 cells was “no cytotoxicity”. Also, in data set [1], the inhibition at 80 µM was less than 100%. For the compound `COCCNc1nccn2c(-c3ccc(Cl)cc3)nnc12` [Compound 9], in data set [1], the inhibition at 80 µM is less than 100%. `C[C@H]1[C@@H](O)O[C@@H]2O[C@@]3(C)CC[C@H]4[C@H](C)CC[C@@H]1[C@@]24OO3` [DHA, dihydroartemisinin, reference compound]: the IC50 in data set [1] (setting [4]) came to 0.000475 ± 9e-05 µM.

Consider `CN(C)CCCNc1nccn2c(-c3ccc(Cl)cc3)nnc12` [Compound 12], for which the “Selectivity index (fold difference) IC50(HEK293)/IC50(Pf 3D7)” value in data set [1] was greater than 4. Further, the concentration for half-maximal inhibition (IC50) in data set [1] (setting [3]) is 22 ± 1.56 µM.

Turning to `Clc1ccc(-c2nnc3cncc(Cl)n23)cc1` [Compound 1, 5-chloro-3-(4-chlorophenyl)-[1,2,4]triazolo[4,3-a]pyrazine], in the data set on HEK293 cells, the “cytotoxicity against HEK293 cells” value is listed as “no cytotoxicity”. Also, the “Selectivity index (fold difference) IC50(HEK293)/IC50(Pf 3D7)” value in data set [1] is reported as greater than 6. For the same compound, the IC50 in data set [1] (setting [3]) was determined as 12.6 ± 1.9 µM. Turning to `Fc1ccc(CCNc2nccn3c(-c4ccc(Cl)cc4)nnc23)cc1` [Compound 3], the “cytotoxicity against HEK293 cells” value in the data set with HEK293 cells was “some inhibition”. The inhibition at 80 µM in the data set on HEK293 cells (setting [2]) is 74 ± 7%; in data set [1] it was less than 100%. For the compound `Clc1ccc(-c2nnc3c(NCc4ccccc4)nccn23)cc1` [Compound 4], in data set [1], the inhibition at 80 µM is less than 100%.

As for `CCN(CC)CCCC(C)Nc1ccnc2cc(Cl)ccc12` (centres unmarked) [CQ, chloroquine, reference compound], the half-maximal inhibitory concentration (IC50) in data set [1] (3D7, 72 h) came to 0.0212 ± 0.00566 µM. For the compound `CCCNc1nccn2c(-c3ccc(Cl)cc3)nnc12` [Compound 6], in data set [1], the inhibition at 80 µM was less than 100%. Still for that read-out and setting: the result for `Fc1ccc(CNc2nccn3c(-c4ccc(Cl)cc4)nnc23)cc1` [Compound 5] reads less than 100%. With `CC(C)(C)OC(=O)NCCCCNc1nccn2c(-c3ccc(Cl)cc3)nnc12` [Compound 15, tert-Butyl(4-((3-(4-chlorophenyl)-[1,2,4]triazolo[4,3-a]pyrazin-8 yl)amino)butyl)carbamate], the inhibition at 80 µM with HEK293 cells (setting [2]) was 57 ± 4%; in data set [1], less than 100%. Consider `CCN(CC)CCNc1nccn2c(-c3ccc(Cl)cc3)nnc12` [Compound 11], for which the “Selectivity index (fold difference) IC50(HEK293)/IC50(Pf 3D7)” value in data set [1] is on record as greater than 4. For the same compound, the half-maximal inhibitory concentration (IC50) in data set [1] (setting [3]) stood at 22 ± 2.4 µM.

`CC(C)CCNc1nccn2c(-c3ccc(Cl)cc3)nnc12` [Compound 7, 3-(4-Chlorophenyl)-N-isopentyl-[1,2,4]triazolo[4,3-a]pyrazin-8-amine]: the inhibition at 80 µM in data set [1] was less than 100%. Take `CCN(CC)CCCNc1nccn2c(-c3ccc(Cl)cc3)nnc12` [Compound 13]: in the data set on HEK293 cells (setting [2]), the inhibition at up to 80 µM was 48 ± 5%. The half-maximal inhibitory concentration (IC50) in data set [1] (setting [3]) came out at 11.3 ± 0.57 µM.

As a reminder, the inhibition is the relative decrease from the control value, in per cent. The IC50 is the concentration at which inhibition is half-maximal.
